Experimental data reported in patent publication US20260248950A1, “ANTIMICROBIAL PEPTIDE DELIVERY SYSTEM AND MANUFACTURING METHOD BASED ON GOLD NANOPARTICLE-APTAMER CONJUGATE” (NES BIOTECHNOLOGY CO., LTD., priority 2022, published 2026).
Converted amounts (≈) assume the structure as drawn. Read-outs that look alike come from different tables or passages of the source. Peptide text beside a SMILES is read from it. {SH} = thiol modification, used to bind gold nanoparticles

Experiments:
Acinetobacter baumannii = test: microbe, parasite or virus in culture; assay type: cell-based
Procedure: (§1) An experiment was conducted to determine the minimum inhibitory concentration (MIC) for multi-resistant strains in an antimicrobial activity test. Pseudomonas aeruginosa, Acinetobacter baumannii, and Staphylococcus aureus were cultured in LB medium at 1×10^3 colony-forming units (CFU)/ml. Each strain was treated with WLBU2 peptide and antibiotics, such as ampicillin and erythromycin, at concentrations of 2, 4, 8, 16, 32, 64, 128, 256, and 512 μM, respectively, and then incubated at 37° C. for 18 to 24 hours.
(§2) The minimum inhibitory concentration (MIC) was determined as the […].

Pseudomonas aeruginosa = test: microbe, parasite or virus in culture; assay type: cell-based
Procedure: as §1, §2

Staphylococcus aureus = test: microbe, parasite or virus in culture; assay type: cell-based
Procedure: as §1, §2

WLBU2 = test: SELEX aptamer selection, sequencing fold change of samples binding to WLBU2 vs control; settings: samples binding to WLBU2 compared to the control group; SELEX repeated 11 times
Procedure: Aptamers specific to the antimicrobial peptide WLBU2 were developed using the SELEX (Systematic Evolution of Ligands by Exponential Enrichment) method. The SELEX process was repeated a total of 11 times, and the optimal aptamers with high binding affinity to WLBU2 were selected. The aptamer selection process was conducted according to the procedure illustrated in FIG. 1.
Among all the sequences confirmed through sequencing, four representative sequences showing a fold change greater than 2-fold in the samples binding to WLBU2 compared to the control group were developed.

[1] = Pseudomonas aeruginosa, LB medium, 1×10^3 CFU/ml, 37° C., 18 to 24 hours

Question: What does the source list for `CC[C@H]1OC(=O)[C@H](C)[C@@H](O[C@H]2C[C@@](C)(OC)[C@@H](O)[C@H](C)O2)[C@H](C)[C@@H](O[C@@H]2O[C@H](C)C[C@H](N(C)C)[C@H]2O)[C@](C)(O)C[C@@H](C)C(=O)[C@H](C)[C@@H](O)[C@]1(C)O` [Erythromycin, erythromycin]?
Answer: MIC (Acinetobacter baumannii; Acinetobacter baumannii, LB medium, 1×10^3 CFU/ml, 37° C., 18 to 24 hours, read-out: MIC): > 256 µM; MIC (Pseudomonas aeruginosa; [1]): > 64 µM; MIC (Staphylococcus aureus; Staphylococcus aureus, LB medium, 1×10^3 CFU/ml, 37° C., 18 to 24 hours, read-out: MIC): > 128 µM

Question: Which results are given for `CC(C)[C@H](NC(=O)[C@H](Cc1c[nH]c2ccccc12)NC(=O)[C@H](CCCNC(=N)N)NC(=O)[C@H](CCCNC(=N)N)NC(=O)[C@@H](NC(=O)[C@@H](NC(=O)[C@H](CCCNC(=N)N)NC(=O)[C@@H](NC(=O)[C@@H](NC(=O)[C@H](CCCNC(=N)N)NC(=O)[C@H](CCCNC(=N)N)NC(=O)[C@@H](NC(=O)[C@H](Cc1c[nH]c2ccccc12)NC(=O)[C@H](CCCNC(=N)N)NC(=O)[C@H](CCCNC(=N)N)NC(=O)[C@@H](NC(=O)[C@H](CCCNC(=N)N)NC(=O)[C@H](CCCNC(=N)N)NC(=O)[C@@H](NC(=O)[C@H](Cc1c[nH]c2ccccc12)NC(=O)[C@H](CCCNC(=N)N)NC(=O)[C@@H](N)CCCNC(=N)N)C(C)C)C(C)C)C(C)C)C(C)C)C(C)C)C(C)C)C(C)C)C(=O)N[C@@H](CCCNC(=N)N)C(=O)N[C@@H](CCCNC(=N)N)C(=O)O` [WLBU2] (H-RRWVRRVRRWVRRVVRVVRRWVRR-OH; N-terminus and C-terminus assumed)?
Answer: MIC (Acinetobacter baumannii; read-out: MIC): 8 µM (≈ 27.2 µg/mL); MIC (Pseudomonas aeruginosa): 4 µM (≈ 13.6 µg/mL); MIC (Staphylococcus aureus; read-out: MIC): 4 µM (≈ 13.6 µg/mL)

Question: `CC1(C)S[C@@H]2[C@H](NC(=O)[C@H](N)c3ccccc3)C(=O)N2[C@H]1C(=O)O` [Ampicillin, ampicillin] was tested. Which MIC (Acinetobacter baumannii; Acinetobacter baumannii) did it give?
Answer: Its MIC is greater than 256 µM.

Question: What about the MIC (Pseudomonas aeruginosa; [1]) of the same molecule?
Answer: Its MIC is greater than 64 µM.

Question: And the MIC (Staphylococcus aureus; Staphylococcus aureus)?
Answer: The MIC was greater than 256 µM.

B1: WLBU2-R-3: SELEX aptamer specific to WLBU2, SEQ No. 4 (nucleic acid)
DNA: AAAACGACGGCCAGTGCGCGCGCTTTGCTTGTGTGAGCATTGCTTTTGCATTATTGGTTTGGTTGGTGTGGTTCGTGCGCGCCATGGTCATAGCTGT
modifications: listed as DNA, chemistry not fully specified
Question: For B1, which FoldChange (WLBU2) is on record?
Answer: The FoldChange was 2.7.

B2: WLBU2-R-2: SELEX aptamer specific to WLBU2, SEQ No. 3 (nucleic acid)
DNA: AAAACGACGGCCAGTGGCTGGTAGGTTTGGGTGGTTTGGTTGGGATTCGGTTGGTTGGTACCAGCCATGGTCATAGCTGT
modifications: listed as DNA, chemistry not fully specified
Question: How did the FoldChange (WLBU2) turn out when B2 was run?
Answer: The FoldChange was 3.67.

B3: WLBU2-R: SELEX aptamer specific to WLBU2, SEQ No. 1 in Table 2; thiol-modified at 3′-terminal for binding to gold nanoparticles (nucleic acid)
DNA: AAAACGACGGCCAGTGCGCGCGCTTTGCTTGTGTGAGCATTGCTTTTGCATTATTGGTTTGGTTGGTGTGGTTCGTGCGCGCCATGGTCATAGCCTGT
modifications: DNA, 3' {SH}, backbone and methylation of C not given here
Question: For B3, which FoldChange (WLBU2) is on record?
Answer: The FoldChange was 2.2.

B4: WLBU2-R-1: SELEX aptamer specific to WLBU2, SEQ No. 2 (nucleic acid)
DNA: AAAACGACGGCCAGTCTTTCGCGGGGTCTGGGGTTGGGGTTGTGGGTTAATTGCACTTCGAAATGCATGGTCATAGCTGT
modifications: listed as DNA, chemistry not fully specified
Question: With B4 as the molecule, how does the FoldChange (WLBU2) read?
Answer: Its FoldChange is 3.28.
